Read-outs that look alike come from different tables or passages of the source. Values belong to the molecule of their own block, whether it stands above or below them. Residues, ends and D or L forms follow the SMILES beside them. *: point of attachment. Cbz = O=C(OCc1ccccc1)*; OtBu = CC(C)(C)O*
What was measured:
SH-SY5Y/TG cells [1] = test system: SH-SY5Y/TG cells
I-κBα = assay: Proteasome inhibitor treatment of SH-SY5Y/TG cells, Western blotting for I-κBα and ubiquitin; conditions: SH-SY5Y/TG cells incubated for 6 hours with proteasome inhibitor; for increased ubiquitinated I-κBα: Western blotting; for level of I-κBα: cytosol
BV-2 microglia = assay: Nitric oxide measurement (Griess reaction) in LPS-activated BV-2 microglia; assay type: cell-based, murine; conditions: BV-2 cells treated with LPS and NMMA (0, 50, 100 μM), 24 hours
Description: (§1) The BV-2 cells were grown and maintained in DMEM (Dulvecco's modified Eagle's medium) (Invitrogen) supplemented with 10% FCS (fetal calf serum) and penicillin/streptomycin at 37° C. in a humidified incubator under 5% CO2. To activate BV-2, the cells were treated with LPS (100 μg/ml; Sigma) for 24 hours. After LPS treatment for 24 hours with or without inducible nitric-oxide synthase(iNOS) inhibitor, 0, 50, and 100 μM N^G-monomethyl-L-arginine(L-NMMA) (Sigma), proteins were extracted with radioimmunoprecipitation assay buffer (1× phosphate-buffered saline (PBS), 1% Nonidet P-40, 0.5% sodium deoxycholate and 0.1% SDS) containing protease inhibitors from BV-2 harvest, followed by analysis for TGase 2 activity.
Accumulated nitric oxide was measured in the cell supernatant after LPS treatment for 24 hours by Griess reaction. A 200 μl aliquot of the cell supernatant in each well of a 96-well microtiter plate was mixed with 100 μl of the Griess reagent [1% sulfanilamide (Fluka), 0.1% naphthylethylenediamine dihydrochloride (Fluka), 2.5% H3PO4], and the absorbance was read at 540 nm using a plate reader.

TGase 2 [2] = assay: TGase activity assay in LPS-activated BV-2 microglia; assay type: cell-based, murine; conditions: BV-2 cells treated with LPS and NMMA (0, 50, 100 μM), 24 hours
Description: as §1
Enzymatic activity was determined using a modified TGase assay method for measuring the incorporation of [1,4-^14C] putrescine into succinylated casein.

TGase 2 [3] = target: T1, TGase 2 (Homo sapiens, UniProt P21980); assay: Effect of TGase inhibitors on reduced I-κBα in SH-SY5Y/TG cells; assay type: cell-based; conditions: SH-SY5Y/TG cells incubated for 30 min with TGase inhibitor, Western blotting
T1 construct: carry a pcDNA5/FRT vector containing a full-length human TGase 2 gene; expressed in transfected cells; host or cells: human neuroblastoma SH-SY5Y, Flp-In system, pcDNA5/FRT vector
T1 sequence (P21980 1-687): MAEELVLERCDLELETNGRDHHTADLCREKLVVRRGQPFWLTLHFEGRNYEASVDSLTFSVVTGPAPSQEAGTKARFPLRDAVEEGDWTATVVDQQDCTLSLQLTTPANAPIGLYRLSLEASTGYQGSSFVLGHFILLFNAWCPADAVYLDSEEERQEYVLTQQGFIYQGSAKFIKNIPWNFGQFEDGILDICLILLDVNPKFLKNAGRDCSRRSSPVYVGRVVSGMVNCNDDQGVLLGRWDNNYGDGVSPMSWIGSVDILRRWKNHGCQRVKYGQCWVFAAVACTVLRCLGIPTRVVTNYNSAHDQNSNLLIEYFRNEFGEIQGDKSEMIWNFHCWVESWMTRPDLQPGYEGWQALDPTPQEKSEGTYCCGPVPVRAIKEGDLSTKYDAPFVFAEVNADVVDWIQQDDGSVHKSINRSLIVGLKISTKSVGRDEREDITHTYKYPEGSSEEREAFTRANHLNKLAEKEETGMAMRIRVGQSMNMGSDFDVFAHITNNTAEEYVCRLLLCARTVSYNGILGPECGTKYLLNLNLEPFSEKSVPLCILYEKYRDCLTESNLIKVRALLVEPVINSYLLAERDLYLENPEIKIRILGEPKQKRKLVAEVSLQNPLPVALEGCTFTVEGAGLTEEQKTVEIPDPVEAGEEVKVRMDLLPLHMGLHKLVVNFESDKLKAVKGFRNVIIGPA
Excerpt: Cystamine is known to inhibit TGase activity by blocking the access of a glutamine residue in substrate proteins to the TGase active site. Iodoacetamide (Sigma) is also known to inhibit TGase activity as a strong competitive irreversible inhibitor. […] E2 (DPVKG: SEQ. ID. NO. 6) and R2 (KVLDGQDP: SEQ. ID. NO. 7) were designed to contain a pro-elafin sequence and a pro-elafin/antiflamnin sequence, respectively, therein. […] In order to examine the effect of TGase inhibitors on the decrease in I-κBα level, the SH-SY5Y/TG culture was treated with different inhibitors for 30 min, followed by the separation of the cytosolic fraction using a nuclear extract kit (Sigma).
The effect of TGase 2 expression on the level of I-κBα was examined in EcR 293 and SH-SY5Y cells. To control TGase 2 expression, a tetracycline-induced expression system was applied to EcR 293 cell line (FIG. 6A). In FIG. 6A, EcR 293 cells were collected before incubation (left), after incubation in a medium containing 1 μg/ml of tetracycline for 24 hours (center), and after incubation in a medium containing 1 μg/ml of tetracycline for 24 hours and then in a fresh medium containing no tetracycline for an additional 24 hours (right). […] To examine whether TGase 2 inhibitors can result in the same effect, SH-SY5Y/TG cells were incubated for 30 min with a TGase inhibitor, such as cystamine, idoacetamide, E2 peptide, or R2 peptide.

SH-SY5Y/TG cells [4] = assay: LDH activity in medium and caspase-9 expression in proteasome inhibitor-treated SH-SY5Y/TG cells; conditions: SH-SY5Y/TG cells incubated for 6 hours with proteasome inhibitor
[5] = target: full-length human NF-κB (p65) (human) (UniProt Q04206); assay: densitometry of co-immunoprecipitation / Western blot
[6] = target: T2, full-length human I-κBα (free form), P25963
T2 chain: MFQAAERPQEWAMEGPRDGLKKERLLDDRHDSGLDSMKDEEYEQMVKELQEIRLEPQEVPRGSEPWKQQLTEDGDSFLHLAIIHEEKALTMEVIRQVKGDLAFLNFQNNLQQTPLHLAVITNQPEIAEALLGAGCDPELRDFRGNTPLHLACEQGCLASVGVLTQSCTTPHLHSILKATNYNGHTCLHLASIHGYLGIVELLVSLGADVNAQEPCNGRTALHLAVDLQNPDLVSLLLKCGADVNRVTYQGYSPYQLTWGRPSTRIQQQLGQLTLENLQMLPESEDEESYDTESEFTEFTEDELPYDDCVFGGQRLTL

[7] = target: T3, human recombinant NF-κB(p52) protein, Q00653
T3 chain: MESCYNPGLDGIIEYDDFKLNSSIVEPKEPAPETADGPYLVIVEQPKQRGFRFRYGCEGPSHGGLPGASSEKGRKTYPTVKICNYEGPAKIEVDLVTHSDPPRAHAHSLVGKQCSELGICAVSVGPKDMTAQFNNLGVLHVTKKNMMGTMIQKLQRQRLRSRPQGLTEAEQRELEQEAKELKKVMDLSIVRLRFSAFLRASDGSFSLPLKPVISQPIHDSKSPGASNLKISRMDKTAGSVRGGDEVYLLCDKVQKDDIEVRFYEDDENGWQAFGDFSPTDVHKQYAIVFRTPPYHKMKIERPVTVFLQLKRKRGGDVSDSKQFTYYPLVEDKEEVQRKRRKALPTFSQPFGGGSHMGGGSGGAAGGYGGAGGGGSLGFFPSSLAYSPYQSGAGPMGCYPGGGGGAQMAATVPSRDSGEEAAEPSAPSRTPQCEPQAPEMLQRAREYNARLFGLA

Chain of full-length human NF-κB (p65) (human) (Q04206 whole entry): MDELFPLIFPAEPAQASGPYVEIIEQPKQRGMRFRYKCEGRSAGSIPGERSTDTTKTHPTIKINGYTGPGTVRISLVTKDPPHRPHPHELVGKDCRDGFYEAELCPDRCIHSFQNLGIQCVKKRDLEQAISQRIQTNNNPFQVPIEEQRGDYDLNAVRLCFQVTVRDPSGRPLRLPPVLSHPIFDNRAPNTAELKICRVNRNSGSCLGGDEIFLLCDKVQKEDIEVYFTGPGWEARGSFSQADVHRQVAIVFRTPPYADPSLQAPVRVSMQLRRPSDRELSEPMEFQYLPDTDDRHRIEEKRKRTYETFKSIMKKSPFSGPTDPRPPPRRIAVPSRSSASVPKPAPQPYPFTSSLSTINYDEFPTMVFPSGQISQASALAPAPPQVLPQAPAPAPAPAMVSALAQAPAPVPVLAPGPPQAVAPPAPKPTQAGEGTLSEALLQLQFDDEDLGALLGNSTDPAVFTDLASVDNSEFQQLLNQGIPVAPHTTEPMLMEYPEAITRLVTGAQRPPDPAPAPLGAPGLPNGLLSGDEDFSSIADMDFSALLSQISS

Molecule: CC(C)C[C@@H](C=O)NC(=O)[C@H](CC(C)C)NC(=O)[C@H](CC(C)C)NC(=O)OCc1ccccc1 [MG132] (Cbz-Leu-Leu-Leu-aldehyde)
LDH activity in the medium (SH-SY5Y/TG cells [1]): not detected | caspase-9 expression by Western blotting (SH-SY5Y/TG cells [1]): not detected | increased ubiquitinated I-κBα (I-κBα): not detected | level of I-κBα (I-κBα): increased

TGase activity (TGase 2 [2]): did not affect
Molecule: CNC(=N)NCCC[C@H](N)C(=O)O [NMMA, N^G-monomethyl-L-arginine]
NO secretion (BV-2 microglia): reduced NO secretion in a dose-dependent manner

LDH activity in the medium (SH-SY5Y/TG cells [1]): not detected | caspase-9 expression by Western blotting (SH-SY5Y/TG cells [1]): not detected
Molecule: CC[C@H](C)[C@H](NC(=O)OCc1ccccc1)C(=O)N[C@@H](CCC(=O)OC(C)(C)C)C(=O)N[C@@H](C)C(=O)N[C@H](C=O)CC(C)C [carbobenzoxy-L-isoleucyl-gamma-t-butyl-L-alanyl-L-leucinal] (Cbz-IE(OtBu)AL-aldehyde)
increased ubiquitinated I-κBα (I-κBα): not detected | level of I-κBα (I-κBα): increased

Molecule: NCCSSCCN [cystamine, Cystamine]
cytosolic I-κBα level (TGase 2 [3]): reduce the cytosolic I-κBα level almost to the control level

Molecule: NC(=O)CI [idoacetamide, Iodoacetamide]
cytosolic I-κBα level (TGase 2 [3]): reduce the cytosolic I-κBα level almost to the control level

LDH activity in the medium (SH-SY5Y/TG cells [4]): not detected | caspase-9 expression by Western blotting (SH-SY5Y/TG cells [4]): not detected
Molecule: CC(=O)N[C@@H](CSC(=O)[C@]1([C@@H](O)C(C)C)NC(=O)[C@H](C)[C@@H]1O)C(=O)O [lactacystin]
increased ubiquitinated I-κBα (I-κBα): not detected | level of I-κBα (I-κBα): increased

Molecule: DPVKG (pro-elafin sequence) [E2 peptide]
cytosolic I-κBα level (TGase 2 [3]): reduce the cytosolic I-κBα level almost to the control level

Molecule: KVLDGQDP (pro-elafin/antiflammin sequence) [R2 peptide]
cytosolic I-κBα level (TGase 2 [3]): reduce the cytosolic I-κBα level almost to the control level

loss of binding efficiency relative to free I-κBα [5]: > 90%
Molecule: polymerized I-κBα (full-length human I-κBα cross-linked by TGase 2) (from UniProt P25963 1-317)

B1: guinea pig liver TGase 2 (protein)
chain: AEDLILERCDLQLEVNGRDHRTADLCRERLVLRRGQPFWLTLHFEGRGYEAGVDTLTFNAVTGPDPSEEAGTMARFSLSSAVEGGTWSASAVDQQDSTVSLLLSTPADAPIGLYRLSLEASTGYQGSSFVLGHFILLYNPRCPADAVYMDSDQERQEYVLTQQGFIYQGSAKFINGIPWNFGQFEDGILDICLMLLDTNPKFLKNAGQDCSRRSRPVYVGRVVSAMVNCNDDQGVLQGRWDNNYSDGVSPMSWIGSVDILRRWKDYGCQRVKYGQCWVFAAVACTVLRCLGIPTRVVTNFNSAHDQNSNLLIEYFRNESGEIEGNKSEMIWNFHCWVESWMTRPDLEPGYEGWQALDPTPQEKSEGTYCCGPVPVRAIKEGHLNVKYDAPFVFAEVNADVVNWIRQKDGSLRKSINHLVVGLKISTKSVGRDEREDITHTYKYPEGSEEEREAFVRANHLNKLATKEEAQEETGVAMRIRVGQNMTMGSDFDIFAYITNGTAESHECQLLLCARIVSYNGVLGPVCSTNDLLNLTLDPFSENSIPLHILYEKYGDYLTESNLIKVRGLLIEPAANSYVLAERDIYLENPEIKIRVLGEPKQNRKLIAEVSLKNPLPVPLLGCIFTVEGAGLTKDQKSVEVPDPVEAGEQAKVRVDLLPTEVGLHKLVVNFECDKLKAVKGYRNVIIGPA
polymerization of I-κBα (in vitro cross-linking, Western blotting) [6]: resulted in completely polymerized I-κBα | polymerization of NF-κB(p52) (in vitro cross-linking, Coomassie staining) [7]: The same polymerization was not observed
